Experimental data taken from patent US20110152332A1, “Pesticidal Heterocyclic Compounds” (Bayer CropScience AG, priority 2009, published 2011).

How the values were obtained:
Format in all cases: in vivo
[1] = system: Tobacco cutworm (Spodoptera litura) larvae; assay: Test against tobacco cutworm (Spodoptera litura) larvae, leaf dip; conditions: active compound concentration 100 ppm; third instar larvae on dipped sweet potato leaves; after 7 days
Procedure: (§1) Unless described otherwise, the test solutions were prepared as follows:
(§2) The active compound, 1 part by weight of the active compound was admixed with the solvent in the above described amount which contains the emulsifying agent in the above described amount. The mixture was then diluted with water to specific concentration.
(§3) In order to prepare the test solution containing the active compound, 1 part by weight of the active compound was admixed with 3 parts by weight of the solvent dimethyl formamide which contains 1 part by weight of the emulsifying agent polyoxyethylene alkylphenyl ether. This mixture is then diluted with water to the specific concentration.
(§4) Solvent: dimethyl formamide, 3 parts by weight; emulsifying agent: polyoxyethylene alkylphenyl ether, 1 part by weight
Leaves of sweet potato were immersed in the test solution at the appropriate concentration, and the leaves were dried in air. The leaves were then placed in a petri dish having a diameter of 9 cm, and ten Spodoptera litura at third instar larvae were released therein. The petri dishes were placed in a temperature-controlled chamber at 25° C. After 2 days and 4 days more sweet potato leaves were added. After 7 days, the number of dead larvae was counted to calculate the insecticidal activity. An insecticidal activity of 100% means that all larvae were killed, whereas an insecticidal activity of 0% means that no larva was killed. In the current test, the results of two petri dishes for each treatment were averaged.

[2] = system: Cucurbit leaf beetle (Aulacophora femoralis); assay: Test against cucurbit leaf beetle (Aulacophora femoralis), leaf dip; conditions: active compound concentration 100 ppm; second instar larvae on dipped cucumber leaves; after 7 days
Procedure: as §1, §2, §3, §4
Leaves of cucumber were immersed in the test solution at the appropriate concentration, and the leaves were dried in air. The leaves were then put in a plastic cup containing sterilized black soil and five Aulacophora femoralis at second instar larvae were released in the cup. The cups were placed in a temperature-controlled chamber at 25° C. After 7 days, the number of dead larvae was counted, and thus the insecticidal activity was calculated. An insecticidal activity of 100% means that all larvae were killed, whereas an insecticidal activity of 0% means that no larva was killed.

[3] = system: Two-spotted spider mite (Tetranychus urticae); assay: Test against two-spotted spider mite (Tetranychus urticae), spray; conditions: active compound concentration 100 ppm; adult mites on kidney bean, sprayed; after 7 days
Procedure: as §1, §2, §3, §4
50 to 100 adult mites of Tetranychus urticae were inoculated to leaves of kidney bean at two-leaf stage planted in a pot of 6 cm in diameter. After one day, test solution at the appropriate concentration was sprayed thereon in a sufficient amount using a spray gun. After the spraying, the plant pot was placed inside a greenhouse, and after 7 days, the acaricidal activity was calculated. An acaricidal activity of 100% means that all mites were killed, whereas an acaricidal activity of 0% means that no mite was killed.

In the case of `CCC(=O)NC1CCc2cc(N3CC(c4cc(Cl)cc(Cl)c4)(C(F)(F)F)OC3=O)ccc21` (stereo not drawn) [Compound 4-3], the insecticidal activity [1] was 100%.
For `COCCC(=O)NCc1ccc(N2CC(c3cc(C(F)(F)F)cc(C(F)(F)F)c3)(C(F)(F)F)OC2=O)cc1C` (stereo not drawn) [Compound 1-165], the insecticidal activity [1] was 100% and the insecticidal activity [2] was 100%.
Compound `O=C(CC(F)(F)F)NCc1ccc(N2CC(c3cc(Cl)c(Cl)c(Cl)c3)(C(F)(F)F)OC2=O)cc1C(F)(F)F` (stereo not drawn) [Compound 1-21] has an acaricidal activity [3] of 100%, an insecticidal activity [1] of 100% and an insecticidal activity [2] of 100%.
With `CC(=O)NC(C)c1ccc(N2CC(c3cc(Cl)c(Cl)c(Cl)c3)(C(F)(F)F)OC2=O)cc1` (stereo not drawn) [Compound 1-370] the insecticidal activity [1] was 100% and the insecticidal activity [2] was 100%.
Work on `CC(NC(=O)C1CC1)c1ccc(N2CC(c3cc(Cl)c(Cl)c(Cl)c3)(C(F)(F)F)OC2=O)cc1` (stereo not drawn) [Compound 1-373] yielded an acaricidal activity [3] of 100% and an insecticidal activity [1] of 100%.
`C[S+]([O-])CC(=O)NCc1ccc(N2CC(c3cc(C(F)(F)F)cc(C(F)(F)F)c3)(C(F)(F)F)OC2=O)cc1Cl` (stereo not drawn) [Compound 1-149] showed an insecticidal activity [1] of 100% and an insecticidal activity [2] of 100%.
Compound `O=C(NCc1ccc(N2CC(c3cccc(C(F)(F)F)c3)(C(F)(F)F)OC2=O)cc1C(F)(F)F)C1CC1` (stereo not drawn) [Compound 1-75] has an acaricidal activity [3] of 100%, an insecticidal activity [1] of 100% and an insecticidal activity [2] of 100%.
Compound `COCCC(=O)NCc1ccc(N2CC(c3cc(C(F)(F)F)cc(C(F)(F)F)c3)(C(F)(F)F)OC2=O)cc1C(F)(F)F` (stereo not drawn) [Compound 1-137] has an acaricidal activity [3] of 100% and an insecticidal activity [2] of 100%.
For `CS(=O)(=O)CC(=O)NCc1ccc(N2CC(c3cc(C(F)(F)F)cc(C(F)(F)F)c3)(C(F)(F)F)OC2=O)cc1C(F)(F)F` (stereo not drawn) [Compound 1-136], the acaricidal activity [3] was 100%, the insecticidal activity [1] was 100% and the insecticidal activity [2] was 100%.
In the case of `CCCC(=O)NCc1ccc(N2CC(c3cc(Cl)c(Cl)c(Cl)c3)(C(F)(F)F)OC2=O)cc1C(F)(F)F` (stereo not drawn) [Compound 1-18], the insecticidal activity [1] was 100%.
Compound `O=C(CC1CC1)NCc1ccc(N2CC(c3cc(Cl)c(Cl)c(Cl)c3)(C(F)(F)F)OC2=O)cc1C(F)(F)F` (stereo not drawn) [Compound 1-20] has an insecticidal activity [1] of 100%.
`CCC(=O)NCc1ccc(N2CC(c3cc(Cl)c(Cl)c(Cl)c3)(C(F)(F)F)OC2=O)cc1Cl` (stereo not drawn) [Compound 1-31] was tested, and the acaricidal activity [3] was 100%, the insecticidal activity [1] was 100% and the insecticidal activity [2] was 100%.
`O=C(NC1CCc2cc(N3CC(c4cc(Cl)c(Cl)c(Cl)c4)(C(F)(F)F)OC3=O)ccc21)C1CC1` (stereo not drawn) [Compound 4-33] showed an acaricidal activity [3] of 100%, an insecticidal activity [1] of 100% and an insecticidal activity [2] of 100%.
With `C[C@H](NC(=O)C1CC1)c1ccc(N2CC(c3cc(Cl)cc(Cl)c3)(C(F)(F)F)OC2=O)cc1` (stereo partly drawn) [Compound 1-345-a] the acaricidal activity [3] was 100% and the insecticidal activity [1] was 100%.
`CC(=O)NCc1ccc(N2CC(c3cc(C(F)(F)F)cc(C(F)(F)F)c3)(C(F)(F)F)OC2=O)cc1Cl` (stereo not drawn) [Compound 1-142] gave an insecticidal activity [1] of 100% and an insecticidal activity [2] of 100%.
`NCc1ccc(N2CC(c3cc(Cl)c(Cl)c(Cl)c3)(C(F)(F)F)OC2=O)cc1C(F)(F)F` (stereo not drawn) [Compound 1-15] showed an insecticidal activity [1] of 100%.
In the case of `C[C@H](NC(=O)C1CC1)c1ccc(N2CC(c3cc(Cl)c(Cl)c(Cl)c3)(C(F)(F)F)OC2=O)cc1` (stereo partly drawn) [Compound 1-373-a], the acaricidal activity [3] was 100%, the insecticidal activity [1] was 100% and the insecticidal activity [2] was 100%.
`O=C(NCc1ccc(N2CC(c3cc(C(F)(F)F)cc(C(F)(F)F)c3)(C(F)(F)F)OC2=O)cc1C(F)(F)F)C1CC1` (stereo not drawn) [Compound 1-131] gave an insecticidal activity [1] of 100% and an insecticidal activity [2] of 100%.
With `O=C(NCc1ccc(N2CC(c3cc(Cl)c(Cl)c(Cl)c3)(C(F)(F)F)OC2=O)cc1C(F)(F)F)C1CC1` (stereo not drawn) [Compound 1-19] the insecticidal activity [1] was 100% and the insecticidal activity [2] was 100%.
`COCCC(=O)NCc1ccc(N2CC(c3cc(Cl)c(Cl)c(Cl)c3)(C(F)(F)F)OC2=O)cc1C(F)(F)F` (stereo not drawn) [Compound 1-25] gave an acaricidal activity [3] of 100% and an insecticidal activity [1] of 100%.
With `O=C(CC(F)(F)F)NCc1ccc(N2CC(c3cccc(C(F)(F)F)c3)(C(F)(F)F)OC2=O)cc1C(F)(F)F` (stereo not drawn) [Compound 1-77] the insecticidal activity [1] was 100% and the insecticidal activity [2] was 100%.
`O=C(CC(F)(F)F)NC1CCc2cc(N3CC(c4cc(Cl)c(Cl)c(Cl)c4)(C(F)(F)F)OC3=O)ccc21` (stereo not drawn) [Compound 4-35] showed an acaricidal activity [3] of 100%, an insecticidal activity [1] of 100% and an insecticidal activity [2] of 100%.
`CCCC(=O)NCc1ccc(N2CC(c3cccc(C(F)(F)F)c3)(C(F)(F)F)OC2=O)cc1C(F)(F)F` (stereo not drawn) [Compound 1-74] was tested, and the insecticidal activity [1] was 100% and the insecticidal activity [2] was 100%.
Work on `O=C(CC1CC1)NC1CCc2cc(N3CC(c4cc(Cl)c(Cl)c(Cl)c4)(C(F)(F)F)OC3=O)ccc21` (stereo not drawn) [Compound 4-34] yielded an acaricidal activity [3] of 100%, an insecticidal activity [1] of 100% and an insecticidal activity [2] of 100%.
`CCC(=O)NC1CCc2cc(N3CC(c4cc(Cl)c(Cl)c(Cl)c4)(C(F)(F)F)OC3=O)ccc21` (stereo not drawn) [Compound 4-31] showed an acaricidal activity [3] of 100%, an insecticidal activity [1] of 100% and an insecticidal activity [2] of 100%.
In the case of `O=C(NCc1ccc(N2CC(c3cc(Cl)cc(Cl)c3)(C(F)(F)F)OC2=O)cc1C(F)(F)F)C1CC1` (stereo not drawn) [Compound 1-5], the insecticidal activity [1] was 100% and the insecticidal activity [2] was 100%.
With `CC(=O)NCc1ccc(N2CC(c3cccc(C(F)(F)F)c3)(C(F)(F)F)OC2=O)cc1C(F)(F)F` (stereo not drawn) [Compound 1-72] the insecticidal activity [1] was 100% and the insecticidal activity [2] was 100%.
Compound `CC(=O)NCc1ccc(N2CC(c3cc(C(F)(F)F)cc(C(F)(F)F)c3)(C(F)(F)F)OC2=O)cc1C(F)(F)F` (stereo not drawn) [Compound 1-128] has an insecticidal activity [1] of 100% and an insecticidal activity [2] of 100%.
`CC(C)(C)OC(=O)NCc1ccc(N2CC(c3cc(Cl)cc(Cl)c3)(C(F)(F)F)OC2=O)cc1C(F)(F)F` (stereo not drawn) [Compound 1-14] showed an insecticidal activity [1] of 100% and an insecticidal activity [2] of 100%.
With `CC(C)(C)OC(=O)NCc1ccc(N2CC(c3cc(Cl)c(Cl)c(Cl)c3)(C(F)(F)F)OC2=O)cc1C(F)(F)F` (stereo not drawn) [Compound 1-28] the insecticidal activity [1] was 100% and the insecticidal activity [2] was 100%.
Compound `O=C(CC1CC1)NCc1ccc(N2CC(c3cccc(C(F)(F)F)c3)(C(F)(F)F)OC2=O)cc1C(F)(F)F` (stereo not drawn) [Compound 1-76] has an acaricidal activity [3] of 100%, an insecticidal activity [1] of 100% and an insecticidal activity [2] of 100%.
Work on `CCC(=O)NCc1ccc(N2CC(c3cc(C(F)(F)F)cc(C(F)(F)F)c3)(C(F)(F)F)OC2=O)cc1C` (stereo not drawn) [Compound 1-157] yielded an insecticidal activity [1] of 100% and an insecticidal activity [2] of 100%.
In the case of `CSCC(=O)NCc1ccc(N2CC(c3cc(C(F)(F)F)cc(C(F)(F)F)c3)(C(F)(F)F)OC2=O)cc1C(F)(F)F` (stereo not drawn) [Compound 1-134], the acaricidal activity [3] was 100%, the insecticidal activity [1] was 100% and the insecticidal activity [2] was 100%.
For `CCC(=O)NC(C)c1ccc(N2CC(c3cc(Cl)c(Cl)c(Cl)c3)(C(F)(F)F)OC2=O)cc1` (racemic) [Compound 1-371, N-(1-{4-[2-oxo-5-(3,4,5-trichlorophenyl)-5-(trifluoromethyl)-1,3-oxazolidin-3-yl]phenyl}ethyl)propanamide], the acaricidal activity [3] was 100% and the insecticidal activity [1] was 100%.
Work on `CCC(=O)N[C@H](C)c1ccc(N2CC(c3cc(Cl)c(Cl)c(Cl)c3)(C(F)(F)F)OC2=O)cc1` (stereo partly drawn) [Compound 1-371-b] yielded an insecticidal activity [1] of 100%.
For `COCCC(=O)NCc1ccc(N2CC(c3cc(C(F)(F)F)cc(C(F)(F)F)c3)(C(F)(F)F)OC2=O)cc1Cl` (stereo not drawn) [Compound 1-151], the insecticidal activity [1] was 100%.
`CCC(=O)NCc1ccc(N2CC(c3cc(C(F)(F)F)cc(C(F)(F)F)c3)(C(F)(F)F)OC2=O)cc1Cl` (stereo not drawn) [Compound 1-143] was tested, and the insecticidal activity [1] was 100% and the insecticidal activity [2] was 100%.
`CCNC(=O)NCc1ccc(N2CC(c3cc(Cl)cc(Cl)c3)(C(F)(F)F)OC2=O)cc1C(F)(F)F` (stereo not drawn) [Compound 1-13] showed an insecticidal activity [1] of 100%.
In the case of `CSCC(=O)NCc1ccc(N2CC(c3cc(C(F)(F)F)cc(C(F)(F)F)c3)(C(F)(F)F)OC2=O)cc1Cl` (stereo not drawn) [Compound 1-148], the insecticidal activity [2] was 100%.
For `CSCC(=O)NCc1ccc(N2CC(c3cc(Cl)c(Cl)c(Cl)c3)(C(F)(F)F)OC2=O)cc1C(F)(F)F` (stereo not drawn) [Compound 1-22], the insecticidal activity [1] was 100% and the insecticidal activity [2] was 100%.
`CC(=O)NCc1ccc(N2CC(c3cc(C(F)(F)F)cc(C(F)(F)F)c3)(C(F)(F)F)OC2=O)cc1C` (stereo not drawn) [Compound 1-156] was tested, and the insecticidal activity [1] was 100%.
